From patent US8822449B2, “Substituted aminoindanes and analogs thereof, and the pharmaceutical use thereof” (Sanofi, priority 2008, dated 2014)
Read-outs that look alike come from different tables or passages of the source.

Target: T1, sodium-proton exchanger of subtype 3 (NHE3) (Homo sapiens, UniProt P48764)
T1 construct: expressed in transfected cells
T1 sequence (P48764 26-834): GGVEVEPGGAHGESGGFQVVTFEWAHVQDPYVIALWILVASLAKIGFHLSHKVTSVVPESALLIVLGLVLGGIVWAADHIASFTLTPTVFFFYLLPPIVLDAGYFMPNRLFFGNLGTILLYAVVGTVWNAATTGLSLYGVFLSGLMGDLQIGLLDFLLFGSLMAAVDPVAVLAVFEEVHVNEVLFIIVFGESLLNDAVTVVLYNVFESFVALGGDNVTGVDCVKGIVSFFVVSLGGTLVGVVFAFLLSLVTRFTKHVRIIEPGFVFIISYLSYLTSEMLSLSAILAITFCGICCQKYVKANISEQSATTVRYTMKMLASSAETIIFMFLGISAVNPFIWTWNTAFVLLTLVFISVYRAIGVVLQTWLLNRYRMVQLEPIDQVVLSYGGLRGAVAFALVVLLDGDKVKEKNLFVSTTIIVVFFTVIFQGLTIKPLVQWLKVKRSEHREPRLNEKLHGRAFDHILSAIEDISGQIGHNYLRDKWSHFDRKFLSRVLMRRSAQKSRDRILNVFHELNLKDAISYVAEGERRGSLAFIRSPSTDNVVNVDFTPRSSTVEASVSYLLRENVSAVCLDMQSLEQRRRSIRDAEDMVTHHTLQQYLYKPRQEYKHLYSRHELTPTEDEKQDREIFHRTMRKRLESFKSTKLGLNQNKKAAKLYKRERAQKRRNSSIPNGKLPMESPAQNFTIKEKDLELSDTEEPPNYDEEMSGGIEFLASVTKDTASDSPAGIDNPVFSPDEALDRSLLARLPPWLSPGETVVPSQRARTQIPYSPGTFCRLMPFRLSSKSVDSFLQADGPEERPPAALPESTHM
Assay: Recovery of intracellular pH (pHi) after acidification in LAP1 cells stably expressing NHE3 (BCECF fluorescence, FLIPR)
Assay type: cell-based
Details: LAP1 cells stably expressing NHE3, pH recovery after acidification, range 1 is % inhibition at 10 μM

[1] = read-out: Activity range (inhibitory effect on NHE3)

| IC50 [1] | SMILES | further results |
| --- | --- | --- |
| < 1000 nM | CC(=O)Nc1cccc(O[C@H]2c3cc(Cl)cc(Cl)c3C[C@@H]2N2CCCNCC2)c1 (racemic) [Example 644, N-[3-(rac-trans-(1,2)-4,6-dichloro-2-[1,4]diazepan-1-ylindan-1-yloxy)phenyl]acetamide] |  |
| 1000 to 10000 nM | N[C@H]1CCCN([C@@H]2Cc3ccccc3[C@H]2Oc2ccc(N3CCNCC3)cc2)C1 (racemic) [Example 185, (S)-1-[rac-trans-(1,2)-1-(4-piperazin-1-ylphenoxy)indan-2-yl]piperidin-3-ylamine] |  |
| 1000 to 10000 nM | NS(=O)(=O)c1ccc(O[C@H]2c3ccccc3C[C@@H]2CN2CCCC2)c(Cl)c1 (racemic) [Example 442, 3-chloro-4-(2-pyrrolidin-1-ylmethylindan-1-yloxy)benzenesulfonamide] |  |
| 1000 to 10000 nM | CS(=O)(=O)c1ccc(O[C@H]2c3cc(Cl)cc(Cl)c3C[C@@H]2N2CC[C@@H](CO)C2)cc1 [Example 227, {(R)-1-[trans-(1S,2S)-4,6-dichloro-1-(4-methanesulfonylphenoxy)indan-2-yl]pyrrolidin-3-yl}methanol] |  |
| 1000 to 10000 nM | NS(=O)(=O)c1ccc(O[C@H]2c3ccccc3C[C@@H]2N2CCCC(O)C2)c(Cl)c1Cl (mixture of isomers) [Example 361, 2,3-dichloro-4-[trans-(1S,2S)-2-(3-hydroxy-piperidin-1-yl)indan-1-yloxy]benzenesulfonamide] |  |
| < 1000 nM | Cc1nnc(C)n1-c1ccc(O[C@H]2c3cc(F)cc(F)c3C[C@@H]2N2CC[C@@H](O)C2)c(Cl)c1 [Example 109, (R)-1-{(1S,2S)-1-[2-chloro-4-(3,5-dimethyl-[1,2,4]triazol-4-yl)phenoxy]-4,6-difluoroindan-2-yl}pyrrolidin-3-ol] |  |
| < 1000 nM | CC(=O)Nc1cccc(O[C@H]2c3cc(F)cc(Cl)c3C[C@@H]2N2CCC[C@@H](N)C2)c1 (racemic) [Example 677, N-{3-[rac-trans-(1,2)-2-((R)-3-aminopiperidin-1-yl)-4-chloro-6-fluoroindan-1-yloxy]phenyl}acetamide] |  |
| 1000 to 10000 nM | NCC1CCN([C@@H]2Cc3ccccc3[C@H]2Oc2cccc(NC(N)=O)c2)C1 (mixture of isomers) [Example 233, {3-[rac-trans-(1,2)-2-(3-aminomethylpyrrolidin-1-yl)indan-1-yloxy]phenyl}urea] |  |
| < 1000 nM | CC(=O)Nc1cccc(O[C@H]2c3cc(Cl)ccc3C[C@@H]2N2CCCC2)c1 (racemic) [Example 658, N-[3-(rac-trans-(1,2)-6-chloro-2-pyrrolidin-1-ylindan-1-yloxy)phenyl]acetamide] |  |
| 1000 to 10000 nM | COc1cc(Cl)cc(O[C@@H]2c3ccccc3C[C@H]2N2CCC(CN)C2)c1 (mixture of isomers) [Example 613, C-{1-[rac-trans-(1,2)-1-(3-chloro-5-methoxyphenoxy)indan-2-yl]pyrrolidin-3-yl}methylamine] |  |
| < 1000 nM | Cc1nnc(C)n1-c1ccc(O[C@H]2c3ccccc3C[C@@H]2N2CCCC2)c(Cl)c1 [Example 491, 4-[3-chloro-4-(trans-(1S,2S)-2-pyrrolidin-1-ylindan-1-yloxy)phenyl]-3,5-dimethyl-4H-[1,2,4]triazole] |  |
| < 1000 nM | FC(F)(F)CCN[C@@H]1CCCN([C@H]2Cc3c(Cl)cc(Cl)cc3[C@@H]2Oc2ccc(-n3cncn3)cc2)C1 [Example 221, {(R)-1-[trans-(1S,2S)-4,6-dichloro-1-(4-[1,2,4]triazol-1-ylphenoxy)indan-2-yl]piperidin-3-yl}-(3,3,3-trifluoropropyl)amine] |  |
| < 1000 nM | Cc1nnc(C)n1-c1ccc(O[C@H]2c3cc(Cl)cc(Cl)c3C[C@@H]2NC2CCCC2)c(F)c1 [Example 746, Cyclopentyl-{trans-(1S,2S)-4,6-dichloro-1-[4-(3,5-dimethyl-[1,2,4]triazol-4-yl)-2-fluoro-phenoxy]-indan-2-yl}-amine] |  |
| 1000 to 10000 nM | N[C@@H]1CCCN([C@@H]2Cc3ccccc3[C@H]2Oc2cccc3[nH]ccc23)C1 (racemic) [Example 30, (R)-1-[rac-trans-(1,2)-1-(1H-indol-4-yloxy)indan-2-yl]piperidin-3-ylamine] |  |
|  | CCN(CC)C(=O)c1ccc(O[C@H]2c3ccccc3C[C@@H]2N2CCCC2)cc1 (racemic) [Example 633, N,N-diethyl-4-(rac-trans-(1,2)-2-pyrrolidin-1-ylindan-1-yloxy)benzamide] | IC50 (Activity range (inhibitory effect on NHE3)): 1000 to 10000 nM |
| < 1000 nM | N[C@@H]1CCCN([C@H]2CCc3ccccc3[C@@H]2Oc2ccc3ccncc3c2)C1 (racemic) [Example 84, (R)-1-[rac-trans-(1,2)-1-(isoquinolin-7-yloxy)-1,2,3,4-tetrahydronaphthalen-2-yl]piperidin-3-ylamine] |  |
|  | Clc1cc(Cl)c2c(c1)[C@H](Oc1ccc(-n3cncn3)cc1)[C@@H](N1CCOCC1)C2 (racemic) [Example 549, 4-[rac-trans-(1,2)-4,6-dichloro-1-(4-[1,2,4]triazol-1-ylphenoxy)indan-2-yl]morpholine] | inhibition at 10 µM [1]: 20 to 50% |
| 1000 to 10000 nM | NCC1CCN([C@@H]2Cc3ccccc3[C@H]2Oc2ccc3c(c2)OCO3)C1 (mixture of isomers) [Example 621, C-{1-[rac-trans-(1,2)-1-(benzo[1,3]dioxol-5-yloxy)indan-2-yl]pyrrolidin-3-yl}methylamine] |  |
|  | N[C@H]1CCCN([C@H]2CCc3ccccc3[C@@H]2Oc2ccc(F)cc2)C1 (racemic) [Example 179, (S)-1-[rac-trans-(1,2)-1-(4-fluorophenoxy)-1,2,3,4-tetrahydronaphthalen-2-yl]piperidin-3-ylamine] | inhibition at 10 µM [1]: 20 to 50% |
| 1000 to 10000 nM | NCC1CCN([C@@H]2Cc3ccccc3[C@H]2Oc2ccc(S(N)(=O)=O)c(Cl)c2Cl)CC1 (racemic) [Example 545, 4-[rac-trans-(1,2)-2-(4-aminomethylpiperidin-1-yl)indan-1-yloxy]-2,3-dichlorobenzenesulfonamide] |  |
| < 1000 nM | CN1C[C@@H]2CN([C@H]3Cc4c(Cl)cc(Cl)cc4[C@@H]3Oc3ccc(S(C)(=O)=O)cc3)C[C@@H]2C1 [Example 8, 2-[trans-(1S,2S)-4,6-dichloro-1-(4-methanesulfonylphenoxy)indan-2-yl]-5-methyloctahydropyrrolo[3,4-c]pyrrole] |  |
| 1000 to 10000 nM | Cc1cc(O[C@@H]2c3ccccc3C[C@H]2N2CCC(CN)C2)cc(C)c1C#N (mixture of isomers) [Example 539, 4-[rac-trans-(1,2)-2-(3-aminomethylpyrrolidin-1-yl)indan-1-yloxy]-2,6-dimethylbenzonitrile] |  |
| < 1000 nM | CC(=O)Nc1cccc(O[C@@H]2c3cc(Cl)cc(F)c3C[C@H]2N2CCC[C@@H](N)C2)c1 (racemic) [Example 678, N-{3-[rac-trans-(1,2)-2-((R)-3-aminopiperidin-1-yl)-6-chloro-4-fluoroindan-1-yloxy]phenyl}acetamide] |  |
| 1000 to 10000 nM | N[C@H]1CCCN([C@H]2CCc3ccccc3[C@@H]2Oc2cccc3ccc(Cl)nc23)C1 (racemic) [Example 154, (S)-1-[rac-trans-(1,2)-1-(2-chloroquinolin-8-yloxy)-1,2,3,4-tetrahydronaphthalen-2-yl]piperidin-3-ylamine] |  |
| < 1000 nM | CS(=O)(=O)c1ccc(O[C@H]2c3cc(Cl)cc(Cl)c3C[C@@H]2N2CC[C@@H](NCCF)C2)cc1 [Example 226, {(R)-1-[trans-(1S,2S)-4,6-dichloro-1-(4-methanesulfonylphenoxy)indan-2-yl]pyrrolidin-3-yl}-(2-fluoroethyl)amine] |  |
|  | COC(=O)c1ccc(O[C@H]2c3ccccc3CC[C@@H]2N2CCC[C@@H](N)C2)c(Cl)c1 (racemic) [Example 513, 4-[rac-trans-(1,2)-2-((R)-3-aminopiperidin-1-yl)-1,2,3,4-tetrahydronaphthalen-1-yloxy]-3-chlorobenzoic acid methyl ester] | inhibition at 10 µM [1]: 20 to 50% |
| 1000 to 10000 nM | Cc1cc(O[C@@H]2c3ccccc3C[C@H]2N2C[C@H]3CNC[C@H]3C2)cc(C)c1C#N (racemic) [Example 505, 4-[rac-trans-(1,2)-2-(Hexahydropyrrolo[3,4-c]pyrrol-2-yl)indan-1-yloxy]-2,6-dimethylbenzonitrile] |  |
| 1000 to 10000 nM | N[C@@H]1CCCN([C@@H]2Cc3ccccc3[C@H]2Oc2ccnc3ccccc23)C1 (racemic) [Example 88, (R)-1-[rac-trans-(1,2)-1-(quinolin-4-yloxy)indan-2-yl]piperidin-3-ylamine] |  |
|  | N[C@H]1CCCN([C@H]2CCc3ccccc3[C@@H]2Oc2cccc(OC(F)F)c2)C1 (racemic) [Example 166, (S)-1-[rac-trans-(1,2)-1-(3-difluoromethoxyphenoxy)-1,2,3,4-tetrahydronaphthalen-2-yl]piperidin-3-ylamine] | inhibition at 10 µM [1]: 20 to 50% |
| 1000 to 10000 nM | N#Cc1ccc(O[C@@H]2c3ccccc3C[C@H]2N2CCC(CN)C2)c(Cl)c1 (mixture of isomers) [Example 541, 4-[rac-trans-(1,2)-2-(3-aminomethylpyrrolidin-1-yl)indan-1-yloxy]-3-chlorobenzonitrile] |  |
